{
  "source": "patent US8524697B2",
  "about": "“C20-C21 substituted glucocorticoid receptor agonists” (Merck Sharp & Dohme Corp., priority 2007, dated 2013)",
  "origin": "cited, not measured here",
  "target": "SYK kinase (Homo sapiens, UniProt P43405)",
  "conditions": "symptoms associated with chronic nasal congestion",
  "data": [
    {"smiles": "Oc1cccc(Nc2ncc(F)c(Nc3cccc(O)c3)n2)c1", "note": "[Example R112]", "values": [
      {"measurement": "absolute difference over placebo", "value": 9, "unit": "%"},
      {"measurement": "improvement from baseline measurements (prior to drug initiation)", "value": "up to 38%"},
      {"measurement": "relative improvement over placebo", "value": "greater than 20%"}
    ]}
  ]
}
